Laboratory results reported in patent publication US20210121418A1, “TREATMENT OF PROTEINURIA” (SYNACT PHARMA APS, priority 2018, published 2021).

What was measured:
MC3R = details: cited from earlier work
[1] = Phase I Part IV, 14-day repeated dose, oral suspension (PK and safety); details: for C Max (mean +/− SD, N = 9) / C Trough (Mean +/− SD, N = 9): steady conditions
[2] = system: Passive Heymann Nephritis; assay: Passive Heymann Nephritis, experiment 2 (oral gavage vs ACTH(1-24)); format: in vivo, rat; details: 4 weeks treatment
Experimental: Passive Heymann Nephritis was introduced to Male Sprague-Dawley rats by administration of anti-Fx1A serum (PTX-002S, Probetex, San Antonio, Tex., USA) Probetex, lot 169-6H) on study day 0 (1 ml serum) and on study day 7 (0.25 serum) into the jugular vein by slow injection during isoflurane anaesthesia. […] In another experiment (experiment 2) test compound 1 was given once daily by oral gavage. […] In this experiment treatment effect of test compound 1 was compared to the effect of ACTH(1-24) as ACTH from the literature has been described to have treatment effects on proteinuria in the applied experimental model. […] Likewise, the urine concentration of creatinine and albumin were determined and so was the volume of the 24-hours urine production. The blood sample was taken from the abdominal vein during pentobarbital (0.2-0.3 mL/rat ip; Dolethal, Vetoquinol via […], France). The collected blood was transferred into tubes coated with EDTA and centrifuged (10 minutes, 1000 g, 4° C.) for plasma collection. Plasma samples were stored at -80° C. until quantification of creatinine and Albumin. […] Statistical analyses were made by standard unpaired t-test, with p<0.05 considered statistical significant

clinical [3] = details: male, human, plasma
[4] = Effect of meal timing and apple juice on absorption of the suspension; format: in vivo
Experimental: The effect of food intake on the absorption of AP1189 in the current suspension formulation has not been systematically evaluated. However, it has been shown that the plasma profile of the compound, whether the first meal was served 1 hour or 4 hours post-dosing in the fasting state, is very similar.

[5] = system: experimental inflammatory arthritis; details: in vivo; cited from earlier work
[6] = system: Passive Heymann Nephritis; assay: Passive Heymann Nephritis, experiment 1 (ip dosing); format: in vivo, rat; details: for FEAlb (fractional albumin excretion) reduced by: 10 mg/kg ip once daily; for proteinuria compared to control rats (vehicle): day 28 and day 42
Experimental: Passive Heymann Nephritis was introduced to Male Sprague-Dawley rats by administration of anti-Fx1A serum (PTX-002S, Probetex, San Antonio, Tex., USA) Probetex, lot 169-6H) on study day 0 (1 ml serum) and on study day 7 (0.25 serum) into the jugular vein by slow injection during isoflurane anaesthesia. […] Pharmacological intervention with control compound or test compound was initiated on day 14.
In one experiment (experiment 1) test compound 1 dissolved in isotonic saline was given once daily by intraperitoneal (ip) injections at a dose of 10 mg/kg (n=12) with animals treated with isotonic saline injections as controls (n=12).
In experiment 1 twenty-four hours urine collection were performed at three occasions, at day 14 following induction of nephritis, i.e. at the time point where pharmacological intervention was initiated, at day 28 and at day 42 following induction of nephritis. For urine collection the rats were placed in metabolic cages followed by a blood sample for measurement of plasma concentrations of creatinine and albumin. Likewise, the urine concentration of creatinine and albumin were determined and so was the volume of the 24-hours urine production.
The blood sample was taken from the abdominal vein during pentobarbital (0.2-0.3 mL/rat ip; Dolethal, Vetoquinol via Centravet, Lapalisse, France). The collected blood was transferred into tubes coated with EDTA and centrifuged (10 minutes, 1000 g, 4° C.) for plasma collection. Plasma samples were stored at −80° C. until quantification of creatinine and Albumin.
Albumin and creatinine in urine and plasma were quantified using a ABX Pentra 400 Clinical Chemistry analyzer (HORIBA).
Albumin excretion rate was determined as follows:
24 hours urine production×concentration of Albumin in urine.
Fractional Albumin excretion was determined as follows:
((Urine concentration of […]×24 hours urine production)/plasma concentration of albumin)/Creatinine Clearance×100
All data presented as mean±Standard error of mean (SE). Statistical analyses were made by standard unpaired t-test, with p<0.05 considered statistical significant

MC1R = details: cited from earlier work
CYP1A2 = CYP1A2 induction in human hepatocyte; format: in vitro ADME; details: 10 μM
peritonitis = details: oral; cited from earlier work
melanocytes = details: cited from earlier work
macrophages = details: cited from earlier work
clinical [7] = details: human, plasma, oral, 200 mg
[8] = Phase I Part I, single ascending dose, oral suspension (PK and safety)

NC(N)=N/N=C/C=C/c1cccn1-c1ccccc1[N+](=O)[O-] [AP1189, (E)-N-trans-{3-[1-(2-nitrophenyl)-1H-pyrrol-2-yl]-allylidene}-aminoguanidium acetate]
ERK1/2 phosphorylation (MC3R): cause ERK1/2 phosphorylation | canonical cAMP generation (MC3R): does not induce canonical cAMP generation | C Max (mean +/− SD, N = 9) ([1]; 50 mg once daily): 180 ± 38 ng/mL | C Trough (Mean +/− SD, N = 9) ([1]; 50 mg once daily): 46 ± 14 ng/mL | C Max (mean +/− SD, N = 9) ([1]; 100 mg once daily): 427 ± 76 ng/mL | C Trough (Mean +/− SD, N = 9) ([1]; 100 mg once daily): 100 ± 25 ng/mL | exposure at maximum administrated dose above expected therapeutic exposure level ([1]; 200 mg): 5 × | exposure based on Cmax vs expected therapeutic range ([1]; 200 mg, group): ≤ 5 × | exposure based on Cmax vs expected therapeutic range ([1]; 200 mg, individual with the highest exposure): more than 7 × | C Trough (Mean +/− SD, N = 9) ([1]; 300 mg once daily): 186 ± 45 ng/mL | severe or serious adverse events ([1]; 50, 100 or 200 mg once daily, 14 days): No severe AEs nor serious AEs were reported | steady state achieved ([1]; Cohort 1, 50 mg once daily): 7 days | peak increase compared to cohort 1 ([1]; Cohort 2, 100 mg vs 50 mg): approximately 2 fold | subjects with isolated increases in aminotransferases ([1]; Cohort 3 (200 mg), treated with active): 3 subjects | time Cmax was reached post dosing ([1]; Cohort 3, 200 mg once daily): 1 to 2 h | safety profile ([1]; for 50 mg or 100 mg doses for four weeks): good safety profile | TEAEs considered possibly related to the study treatment ([1]; gastrointestinal, 50 mg and 200 mg dose levels): 4 events | QTcF, repeated standard 12 lead safety ECG ([1]; in vivo): No individual QTcF clinically significant values were observed | GFR (creatinine clearance) ([2]; 20 mg/kg oral gavage): 3.12 ± 0.14 mL/min | fraction albumin excretion (FEAlb) ([2]; 20 mg/kg oral gavage): 0.045±0.04% | fraction albumin excretion (FEAlb) ([2]; 40 mg/kg oral gavage): 0.35±0.05% | Vd/F (clinical [3]; oral): 556 to 784 L | half-life (clinical [3]; oral): ~1200 min | Tmax (clinical [3]; po): 1 to 4 h | absorption with a glass of apple juice immediately after dosing [4]: does not reduce the absorption | plasma profile, first meal 1 hour or 4 hours post-dosing ([4]; dosing in the fasting state): very similar | macroscopic and histological parameters of joint disruption [5]: significant reduction of macroscopic and histological parameters of joint disruption | reduction in albumin excretion rate ([6]; 10 mg/kg ip once daily from day 14, day 28): 31±8% | reduction in albumin excretion rate ([6]; 10 mg/kg ip once daily from day 14, day 42): 48±10% | FEAlb (fractional albumin excretion) reduced by ([6]; day 28): 48±5% | FEAlb (fractional albumin excretion) reduced by ([6]; day 42): 45±11% | proteinuria compared to control rats (vehicle) [6]: significantly reduces proteinuria | proteinuria compared to control rats (vehicle) ([6]; listed as test compound 1): significant reduction in proteinuria | reduction in albumin excretion rate ([6]; day 482 as printed in FIG. 1 legend): 48±10% | ERK1/2 phosphorylation (MC1R): cause ERK1/2 phosphorylation | canonical cAMP generation (MC1R): does not induce canonical cAMP generation | CYP1A2 induction (CYP1A2): signal for CYP1A2 induction has been observed | anti-inflammatory actions in peritonitis (peritonitis): elicits anti-inflammatory actions in peritonitis and accelerated the resolution phase | melanogenesis (melanocytes): no melanogenesis was induced | cytokine release (macrophages): reduce cytokine release | Cmax (clinical [7]): ≤ 900 ng/mL | Cmax and AUCs, female compared to male subjects ([8]; 400 mg): slightly increased | apparent volume of distribution, female compared to male ([8]; 400 mg): similar | exposure at maximum administrated dose above expected therapeutic exposure level ([8]; 800 mg): more than 10 × | increase of ALT above the normal upper value ([8]; 400-800 mg): up to 1.6 | TEAEs considered related to the study treatment ([8]; after administration of 200 to 800 mg): 21 events | apparent clearance ([8]; female subjects, 400 mg): 17.26 L/h | QTcF and other cardiac parameters, 24-hours Holter ECG ([8]; in vivo): No AP1189 associated increases in QTcF | changes in vital signs ([8]; in vivo): No treatment-related changes in vital signs | frequency of related gastrointestinal TEAEs vs dose ([8]; in vivo): increased with the dose | subjects with isolated increases in aminotransferases ([8]; male subjects on active IMP, 400, 600, 800 mg): 4 subjects | inter-individual variability for Cmax and AUCs ([8]; male subjects, 50-800 mg): < 36% | severe or serious adverse events ([8]; single doses 15-800 mg): No severe AEs nor serious AEs were reported
